Reference: patent publication US20230265116A1, “DEGRADATION OF (EGFR) BY CONJUGATION OF EGFR INHIBITORS WITH E3 LIGASE LIGAND AND METHODS OF USE” (BEIGENE, LTD., priority 2020, published 2023)

How the values were obtained:
EGFR (HCC827 cells) = molecular target: T1, EGFR (HCC827 cells) (Homo sapiens, UniProt P00533, DEL746-750); assay: EGFR degradation HTRF assay, HCC827 cells; assay type: cell-based; details: HCC827, 16h treatment; for Dmax: maximum percentage of degradation
T1 construct: endogenous in cells; host or cells: HCC827
T1 sequence (P00533 with tags, fused parts or gaps DEL746-750): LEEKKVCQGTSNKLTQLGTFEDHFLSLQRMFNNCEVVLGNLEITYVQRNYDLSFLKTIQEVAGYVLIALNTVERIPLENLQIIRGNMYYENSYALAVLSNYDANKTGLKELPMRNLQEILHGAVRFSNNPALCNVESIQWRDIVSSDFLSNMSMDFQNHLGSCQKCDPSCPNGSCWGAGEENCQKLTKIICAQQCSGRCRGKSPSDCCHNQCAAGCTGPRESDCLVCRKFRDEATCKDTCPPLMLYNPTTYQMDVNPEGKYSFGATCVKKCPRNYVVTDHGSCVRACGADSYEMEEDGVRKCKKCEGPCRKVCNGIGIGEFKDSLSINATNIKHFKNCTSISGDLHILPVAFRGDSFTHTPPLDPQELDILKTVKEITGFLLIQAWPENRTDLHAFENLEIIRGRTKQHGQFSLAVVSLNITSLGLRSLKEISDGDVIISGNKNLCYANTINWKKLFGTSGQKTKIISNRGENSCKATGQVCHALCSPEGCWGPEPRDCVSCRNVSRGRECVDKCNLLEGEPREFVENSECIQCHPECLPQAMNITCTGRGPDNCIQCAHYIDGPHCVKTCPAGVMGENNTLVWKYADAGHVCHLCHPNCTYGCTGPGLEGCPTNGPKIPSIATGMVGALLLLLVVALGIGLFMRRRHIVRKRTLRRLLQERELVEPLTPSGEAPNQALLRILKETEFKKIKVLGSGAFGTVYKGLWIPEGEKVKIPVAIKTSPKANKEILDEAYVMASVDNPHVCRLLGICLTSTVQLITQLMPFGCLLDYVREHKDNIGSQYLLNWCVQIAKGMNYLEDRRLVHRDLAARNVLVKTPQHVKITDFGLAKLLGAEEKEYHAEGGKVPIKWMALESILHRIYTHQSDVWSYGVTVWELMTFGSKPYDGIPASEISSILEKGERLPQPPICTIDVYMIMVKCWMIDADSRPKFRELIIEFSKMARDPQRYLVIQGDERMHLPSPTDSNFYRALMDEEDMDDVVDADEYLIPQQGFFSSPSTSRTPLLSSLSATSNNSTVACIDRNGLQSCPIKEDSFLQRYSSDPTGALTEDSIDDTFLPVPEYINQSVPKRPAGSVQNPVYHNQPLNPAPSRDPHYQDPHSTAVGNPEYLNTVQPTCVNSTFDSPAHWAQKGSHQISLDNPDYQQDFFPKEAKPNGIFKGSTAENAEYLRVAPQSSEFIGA
Procedure, shortened: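 Cells treated 16 h at 37 °C, 5% CO2 in medium with 0.2% DMSO; top final concentration 10 uM, 5-fold dilution, 8 doses. Lysates read by HTRF (665/620 nm); degradation % versus DMSO high control, DC50 from four-parameter fit, Dmax as maximal degradation.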

[1] = molecular target: T2, EGFR L858R/T790M (H1975-clone #36, homozygous) (Homo sapiens, UniProt P00533, L858R/T790M); assay: EGFR degradation HTRF assay, H1975-clone #36 cells; assay type: cell-based; details: H1975 #36, 16h treatment; for Dmax: NCI-H1975, maximum percentage of degradation
T2 construct: designed to specifically target WT EGFR but preserve the L858R/T790M copy; host or cells: H1975-clone #36
T2 sequence (P00533 25-1210 T790M/L858R): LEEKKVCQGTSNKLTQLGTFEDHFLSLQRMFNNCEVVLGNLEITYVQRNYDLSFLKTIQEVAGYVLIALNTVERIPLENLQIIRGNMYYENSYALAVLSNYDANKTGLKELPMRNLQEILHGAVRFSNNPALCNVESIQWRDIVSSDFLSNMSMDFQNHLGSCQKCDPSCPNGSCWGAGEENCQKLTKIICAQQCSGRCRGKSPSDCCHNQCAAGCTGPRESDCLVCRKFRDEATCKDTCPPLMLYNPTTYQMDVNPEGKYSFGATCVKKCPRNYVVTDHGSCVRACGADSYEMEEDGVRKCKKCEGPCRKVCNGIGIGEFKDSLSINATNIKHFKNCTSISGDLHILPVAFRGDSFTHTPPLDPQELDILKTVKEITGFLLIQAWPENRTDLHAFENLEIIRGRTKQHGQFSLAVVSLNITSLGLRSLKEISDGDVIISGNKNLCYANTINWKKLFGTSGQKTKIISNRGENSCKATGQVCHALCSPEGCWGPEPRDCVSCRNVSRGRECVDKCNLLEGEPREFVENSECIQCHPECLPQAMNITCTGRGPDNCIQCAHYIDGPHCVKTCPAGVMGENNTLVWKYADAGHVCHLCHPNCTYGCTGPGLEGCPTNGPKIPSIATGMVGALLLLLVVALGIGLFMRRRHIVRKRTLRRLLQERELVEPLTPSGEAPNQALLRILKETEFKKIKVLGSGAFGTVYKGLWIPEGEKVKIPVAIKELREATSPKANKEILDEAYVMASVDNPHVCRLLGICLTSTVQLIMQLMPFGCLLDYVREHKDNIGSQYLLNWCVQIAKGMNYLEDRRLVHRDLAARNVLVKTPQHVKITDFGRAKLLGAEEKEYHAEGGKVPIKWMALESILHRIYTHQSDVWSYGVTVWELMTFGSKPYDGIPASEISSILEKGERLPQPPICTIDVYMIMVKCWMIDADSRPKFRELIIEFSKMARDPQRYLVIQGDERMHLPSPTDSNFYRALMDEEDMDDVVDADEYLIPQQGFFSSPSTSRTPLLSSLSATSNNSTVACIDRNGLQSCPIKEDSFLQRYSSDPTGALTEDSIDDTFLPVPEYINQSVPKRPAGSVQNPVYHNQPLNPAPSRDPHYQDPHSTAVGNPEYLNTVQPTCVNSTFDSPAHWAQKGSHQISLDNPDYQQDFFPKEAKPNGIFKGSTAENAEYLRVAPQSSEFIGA
Procedure, shortened: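 H1975 clone #36, made homozygous for L858R/T790M EGFR by knockout of the WT allele, treated 16 h at 37 °C with compound in 0.2% DMSO medium. Eight doses from 10 uM, 5-fold dilutions. EGFR measured by HTRF in lysates. DC50 and Dmax fitted against DMSO controls.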

Row | SMILES | DC50 (EGFR (HCC827 cells)) [nM] | Dmax (EGFR (HCC827 cells)) [%] | DC50 [1] [nM] | Dmax [1] [%]
1 | COc1cc(N2CCN(CC3CCN(c4ccc(C5CCC(=O)NC5=O)cc4)CC3)CC2)c(C)cc1Nc1ncc(Br)c(Nc2ccc3nccnc3c2P(C)(C)=O)n1 (stereo not drawn) [Example 88, 3-(4-(4-((4-(4-((5-bromo-4-((5-(dimethylphosphoryl)quinoxalin-6-yl)amino)pyrimidin-2-yl)amino)-5-methoxy-2-methylphenyl)piperazin-1-yl)methyl)piperidin-1-yl)phenyl)piperidine-2,6-dione] | 21.9 | 68.7 | 3.54 | 54.5
2 | COc1cc(N2CCN(CC3CCN(c4ccc(N5CCC(=O)NC5=O)cc4C)CC3)CC2)c(C)cc1Nc1ncc(Br)c(Nc2ccc3nccnc3c2P(C)(C)=O)n1 [Example 98, 1-(4-(4-((4-(4-((5-bromo-4-((5-(dimethylphosphoryl)quinoxalin-6-yl)amino)pyrimidin-2-yl)amino)-5-methoxy-2-methylphenyl)piperazin-1-yl)methyl)piperidin-1-yl)-3-methylphenyl)dihydropyrimidine-2,4(1H,3H)-dione] | 166 | 62.3 | > 10000 | 8.3
3 | COc1cc(N2CCC(N(C)CC3CCN(c4ccc(N5CCC(=O)NC5=O)c(F)c4)CC3)CC2)c(C)cc1Nc1ncc(Br)c(Nc2ccc3nccnc3c2P(C)(C)=O)n1 [Example 81, 1-(4-(4-(((1-(4-((5-bromo-4-((5-(dimethylphosphoryl)quinoxalin-6-yl)amino)pyrimidin-2-yl)amino)-5-methoxy-2-methylphenyl)piperidin-4-yl)(methyl)amino)methyl)piperidin-1-yl)-2-fluorophenyl)dihydropyrimidine-2,4(1H,3H)-dione] | 25.8 | 68.8 | > 10000 | 5.13
4 | COc1cc(N2CCC(N(C)CCCOc3ccc(N4CCC(=O)NC4=O)cc3)CC2)c(C)cc1Nc1ncc(Br)c(Nc2ccc3nccnc3c2P(C)(C)=O)n1 [Example 85, 1-(4-(3-((1-(4-((5-bromo-4-((5-(dimethylphosphoryl)quinoxalin-6-yl)amino)pyrimidin-2-yl)amino)-5-methoxy-2-methylphenyl)piperidin-4-yl)(methyl)amino)propoxy)phenyl)dihydropyrimidine-2,4(1H,3H)-dione] | 73.3 | 75 | > 10000 | 20.9
5 | COc1cc(N2CCN(CCCC(=O)N[C@H](C(=O)N3C[C@H](O)C[C@H]3C(=O)N[C@@H](C)c3ccc(-c4scnc4C)cc3)C(C)(C)C)CC2)c(C)cc1Nc1ncc(Br)c(Nc2ccc3nccnc3c2P(C)(C)=O)n1 [Example 102, (2S,4R)-1-((S)-2-(4-(4-(4-((5-bromo-4-((5-(dimethylphosphoryl)quinoxalin-6-yl)amino)pyrimidin-2-yl)amino)-5-methoxy-2-methylphenyl)piperazin-1-yl)butanamido)-3,3-dimethylbutanoyl)-4-hydroxy-N—((S)-1-(4-(4-methylthiazol-5-yl)phenyl)ethyl)pyrrolidine-2-carboxamide] | 70.1 | 75.9 | 81.7 | 65.1
6 | CCc1cc(Nc2ncc(Br)c(Nc3ccc4nccnc4c3P(C)(C)=O)n2)c(OC)cc1N1CCC(N2CCN(CCC3CCN(c4ccc(N5CCC(=O)NC5=O)cc4)CC3)CC2)CC1 [Example 55, 1-(4-(4-(2-(4-(1-(4-((5-bromo-4-((5-(dimethylphosphoryl)quinoxalin-6-yl)amino)pyrimidin-2-yl)amino)-2-ethyl-5-methoxyphenyl)piperidin-4-yl)piperazin-1-yl)ethyl)piperidin-1-yl)phenyl)dihydropyrimidine-2,4(1H,3H)-dione] | 313 | 56.2 | > 10000 | 18.7
7 | COc1cc(N2CCN(CC3CCN(c4ccc(N5CCC(=O)NC5=O)c(F)c4)CC3)CC2)c(C)cc1Nc1ncc(Br)c(Nc2ccc3nccnc3c2P(C)(C)=O)n1 [Example 96, 1-(4-(4-((4-(4-((5-bromo-4-((5-(dimethylphosphoryl)quinoxalin-6-yl)amino)pyrimidin-2-yl)amino)-5-methoxy-2-methylphenyl)piperazin-1-yl)methyl)piperidin-1-yl)-2-fluorophenyl)dihydropyrimidine-2,4(1H,3H)-dione] | 151 | 67 | > 10000 | 7.3
8 | COc1cc(N2CCN(CC3CCN(c4ccc(C5CCC(=O)NC5=O)cc4)CC3)CC2)ccc1Nc1ncc(Br)c(Nc2ccc3nccnc3c2P(C)(C)=O)n1 (stereo not drawn) [Example 89, 3-(4-(4-((4-(4-((5-bromo-4-((5-(dimethylphosphoryl)quinoxalin-6-yl)amino)pyrimidin-2-yl)amino)-3-methoxyphenyl)piperazin-1-yl)methyl)piperidin-1-yl)phenyl)piperidine-2,6-dione] | 59.6 | 91.8 | 6.23 | 84.7
9 | COc1cc(N2CCN(CC3CCN(c4ccc(N5CCC(=O)NC5=O)cc4F)CC3)CC2)c(C)cc1Nc1ncc(Br)c(Nc2ccc3nccnc3c2P(C)(C)=O)n1 [Example 97, 1-(4-(4-((4-(4-((5-bromo-4-((5-(dimethylphosphoryl)quinoxalin-6-yl)amino)pyrimidin-2-yl)amino)-5-methoxy-2-methylphenyl)piperazin-1-yl)methyl)piperidin-1-yl)-3-fluorophenyl)dihydropyrimidine-2,4(1H,3H)-dione] | 118 | 62.8 | > 10000 | 11.2

Now those with a lower DC50 (EGFR (HCC827 cells)), led by results:

Row | DC50 (EGFR (HCC827 cells)) [nM] | Dmax (EGFR (HCC827 cells)) [%] | DC50 [1] [nM] | Dmax [1] [%] | SMILES
10 | 14.7 | 74 | > 10000 | 12.2 | COc1cc(N2CCC(N(C)CC3CCN(c4ccc(N5CCC(=O)NC5=O)cc4F)CC3)CC2)c(C)cc1Nc1ncc(Br)c(Nc2ccc3nccnc3c2P(C)(C)=O)n1 [Example 82, 1-(4-(4-(((1-(4-((5-bromo-4-((5-(dimethylphosphoryl)quinoxalin-6-yl)amino)pyrimidin-2-yl)amino)-5-methoxy-2-methylphenyl)piperidin-4-yl)(methyl)amino)methyl)piperidin-1-yl)-3-fluorophenyl)dihydropyrimidine-2,4(1H,3H)-dione]
11 | 11.1 | 83.6 | 7.44 | 75.4 | CCc1cc(Nc2ncc(Br)c(Nc3ccc4nccnc4c3P(C)(C)=O)n2)c(OC)cc1N1CCC(N2CCN(CCc3ccc(C4CCC(=O)NC4=O)c(Cl)c3)CC2)CC1 (stereo not drawn) [Example 4, 3-(4-(2-(4-(1-(4-((5-bromo-4-((5-(dimethylphosphoryl)quinoxalin-6-yl)amino)pyrimidin-2-yl)amino)-2-ethyl-5-methoxyphenyl)piperidin-4-yl)piperazin-1-yl)ethyl)-2-chlorophenyl)piperidine-2,6-dione]
12 | 6.59 | 74.7 | 5.72 | 65.5 | CCc1cc(Nc2ncc(Br)c(Nc3ccc4nccnc4c3P(C)(C)=O)n2)c(OC)cc1N1CCC(N2CCN(C(=O)CC3CCN(c4ccc(C5CCC(=O)NC5=O)cc4)CC3)CC2)CC1 (stereo not drawn) [Example 24, 3-(4-(4-(2-(4-(1-(4-((5-bromo-4-((5-(dimethylphosphoryl)quinoxalin-6-yl)amino)pyrimidin-2-yl)amino)-2-ethyl-5-methoxyphenyl)piperidin-4-yl)piperazin-1-yl)-2-oxoethyl)piperidin-1-yl)phenyl)piperidine-2,6-dione]
13 | 4.68 | 85.2 | 1.62 | 82.5 | CCc1cc(Nc2ncc(Br)c(Nc3ccc4nccnc4c3P(C)(C)=O)n2)c(OC)cc1N1CCC(N2CCN(CC3CN(c4ccc5c(c4)C(=O)N(C4CCC(=O)NC4=O)C5=O)C3)CC2)CC1 (stereo not drawn) [Example 59, 5-(3-((4-(1-(4-((5-bromo-4-((5-(dimethylphosphoryl)quinoxalin-6-yl)amino)pyrimidin-2-yl)amino)-2-ethyl-5-methoxyphenyl)piperidin-4-yl)piperazin-1-yl)methyl)azetidin-1-yl)-2-(2,6-dioxopiperidin-3-yl)isoindoline-1,3-dione]
14 | 12.8 | 85.3 | 9.02 | 83.9 | COc1cc(N2CCC(N3CCN(CCc4ccc(C5CCC(=O)NC5=O)cc4)CC3)CC2)ccc1Nc1ncc(Cl)c(Nc2ccccc2N(C)S(C)(=O)=O)n1 (stereo not drawn) [Example 119, N-(2-((5-chloro-2-((4-(4-(4-(4-(2,6-dioxopiperidin-3-yl)phenethyl)piperazin-1-yl)piperidin-1-yl)-2-methoxyphenyl)amino)pyrimidin-4-yl)amino)phenyl)-N-methylmethane sulfonamide]
15 | 19.1 | 84 | 2.61 | 83.9 | COc1cc(N2CCC(N3CCN(CCc4ccc(NC5CCC(=O)NC5=O)cc4)CC3)CC2)ccc1Nc1ncc(Cl)c(Nc2ccccc2N(C)S(C)(=O)=O)n1 (stereo not drawn) [Example 126, N-(2-((5-chloro-2-((4-(4-(4-(4-((2,6-dioxopiperidin-3-yl)amino)phenethyl)piperazin-1-yl)piperidin-1-yl)-2-methoxyphenyl)amino)pyrimidin-4-yl)amino)phenyl)-N-methylmethanesulfonamide]
